Several values for one entry are separate records, joined by “and”; a condition that tells them apart may be missing. Identical values can stand only once. Inconclusive results and toxic doses are left out. Cut-off read from the data, not from the text of the source: active = T/C of 150% or more; inactive = T/C below 125%. Square brackets hold non-standard residues; d marks the D form. Peptide text beside a SMILES is read from it. * marks the point of attachment. ξ: configuration not given here. Cbz = O=C(OCc1ccccc1)*; Abu = CC[CH](N)C(=O)O; ξT = CC(O)C(N)C(=O)O; OBn = c1ccc(CO*)cc1
System: L1210 leukemia ip in BDF1 mice, survival T/C
Test: NCI In Vivo Anticancer Drug Screen. Data for tumor model L1210 Leukemia (intraperitoneal) in B6D2F1 (BDF1) mice
Settings: endpoint: mean survival time, higher = longer survival
In short: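 Tumor was transplanted into mice, which were then dosed with test compound or vehicle alone. Survival was recorded for each group, and the treated figure was expressed relative to the control figure.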

[1] = dose: 50.0 mg/kg/injection, schedule: Q01DX009 (ip), vehicle: saline with Tween-80
[2] = dose: 100.0 mg/kg/injection, schedule: Q01DX009 (ip), vehicle: saline with Tween-80
[3] = dose: 100.0 mg/kg/injection, schedule: Q04DX003 (ip), vehicle: saline with Tween-80
[4] = dose: 200.0 mg/kg/injection, schedule: Q01DX009 (ip), vehicle: saline with Tween-80
[5] = dose: 200.0 mg/kg/injection, schedule: Q04DX003 (ip), vehicle: saline with Tween-80
[6] = dose: 400.0 mg/kg/injection, schedule: Q04DX003 (ip), vehicle: saline with Tween-80
[7] = dose: 100.0 mg/kg/injection, schedule: Q01DX001 (ip), vehicle: other
[8] = dose: 200.0 mg/kg/injection, schedule: Q01DX001 (ip), vehicle: other
[9] = dose: 400.0 mg/kg/injection, schedule: Q01DX001 (ip), vehicle: other
[10] = dose: 100.0 mg/kg/injection, schedule: Q01DX009 (ip), vehicle: Klucel (hydroxypropylcellulose) (HPC)
[11] = dose: 200.0 mg/kg/injection, schedule: Q01DX009 (ip), vehicle: Klucel (hydroxypropylcellulose) (HPC)
[12] = dose: 400.0 mg/kg/injection, schedule: Q01DX009 (ip), vehicle: Klucel (hydroxypropylcellulose) (HPC)
[13] = dose: 100.0 mg/kg/injection, schedule: Q04DX003 (ip), vehicle: Klucel (hydroxypropylcellulose) (HPC)
[14] = dose: 200.0 mg/kg/injection, schedule: Q04DX003 (ip), vehicle: Klucel (hydroxypropylcellulose) (HPC)
[15] = dose: 400.0 mg/kg/injection, schedule: Q04DX003 (ip), vehicle: Klucel (hydroxypropylcellulose) (HPC)
[16] = dose: 100.0 mg/kg/injection, schedule: Q04DX003 (ip), vehicle: saline
[17] = dose: 200.0 mg/kg/injection, schedule: Q04DX003 (ip), vehicle: saline
[18] = dose: 400.0 mg/kg/injection, schedule: Q04DX003 (ip), vehicle: saline
[19] = dose: 100.0 mg/kg/injection, schedule: Q01DX001 (ip), vehicle: saline
[20] = dose: 200.0 mg/kg/injection, schedule: Q01DX001 (ip), vehicle: saline
[21] = dose: 400.0 mg/kg/injection, schedule: Q01DX001 (ip), vehicle: saline
[22] = dose: 100.0 mg/kg/injection, schedule: Q01DX001 (ip), vehicle: Klucel (hydroxypropylcellulose) (HPC)
[23] = dose: 200.0 mg/kg/injection, schedule: Q01DX001 (ip), vehicle: Klucel (hydroxypropylcellulose) (HPC)
[24] = dose: 400.0 mg/kg/injection, schedule: Q01DX001 (ip), vehicle: Klucel (hydroxypropylcellulose) (HPC)
[25] = dose: 400.0 mg/kg/injection, schedule: Q01DX009 (ip), vehicle: saline with Tween-80

Measured: T/C

CCCCN(CCCC)C(=O)C1C=C2c3cccc4[nH]cc(c34)CC2N(C#N)C1 (centres undefined)
inactive: dose: 25.0 mg/kg/injection, schedule: Q01DX009 (ip), vehicle: saline with Tween-80 97 % of control | [1] 91 % of control | [2] 94 % of control | [3] 101 % of control | [4] 87 % of control | [5] 100 % of control | [6] 96 % of control

CC1CCCC(Oc2nc3c(c(=O)n(C)c(=O)n3C)n2C)C1 (centres undefined)
inactive: dose: 50.0 mg/kg/injection, schedule: Q01DX001 (ip), vehicle: other 93 % of control | [7] 93 % of control | [8] 88 % of control | [9] 95 % of control

CC12CCCCCCC1O2 (centres undefined)
inactive: dose: 75.0 mg/kg/injection, schedule: Q01DX001 (ip), vehicle: other 100 % of control | dose: 150.0 mg/kg/injection, schedule: Q01DX001 (ip), vehicle: other 89 % of control | dose: 300.0 mg/kg/injection, schedule: Q01DX001 (ip), vehicle: other 95 % of control

Cc1cc([N+](=O)[O-])ccc1NC(=O)c1c(Cl)c(Cl)c(C(=O)Nc2ccc([N+](=O)[O-])cc2C)c(Cl)c1Cl
inactive: [10] 101 % of control | [11] 94 % of control | [12] 103 % of control

CCOC(=O)COc1ccc(C=O)cc1
inactive: [10] 110 % of control | [13] 102 % of control | [11] 96 % of control | [14] 96 % of control | [12] 98 % of control | [15] 97 % of control

CN(C)CC1CCCCC1=O (centres undefined)
inactive: [2] 97 % of control | [13] 102 % of control | [16] 103 % of control | [4] 96 % of control | [14] 102 % of control | [17] 110 % of control | [15] 97 % of control | [18] 103 % of control

O=C(O)c1cccc([N+](=O)[O-])c1C(=O)c1ccccc1
inactive: [3] 95 % of control | [5] 97 % of control | [6] 93 % of control

COc1ccc(/C(C#N)=C2C=C(Cl)/C(=N/O)C=C/2Cl)cc1
inactive: [19] 91 % of control | [2] 93 % of control | [16] 91 % of control | [20] 95 % of control | [4] 98 % of control | [17] 87 % of control | [21] 96 % of control | [18] 86 % of control

COc1cc(Oc2c(OC)cc(NC(C)=O)cc2OC)cc(OC)c1OC
inactive: [3] 94 % of control | [5] 97 % of control | [6] 95 % of control

COc1cc([N+](=O)[O-])c(Cl)cc1NS(=O)(=O)c1ccc(C)cc1
inactive: [22] 98 % of control | [23] 95 % of control | [24] 90 % of control

Cc1nc2cc3ccccc3c3ccc4cccc1c4c23
inactive: [2] 93 % of control | [4] 93 % of control | [25] 87 % of control

O=[N+]([O-])c1ccc2c([N+](=O)[O-])ccc3c2c1CC3
inactive: [2] 94 % of control | [4] 90 % of control | [25] 92 % of control

CCC1=C(C)C(C)OC(C)=C1C (centres undefined) (tested in a mixture with another compound)
inactive: [19] 93 % of control | [20] 90 % of control | [21] 93 % of control

CCCCCCCCCN(CCCCCCCCC)CC(O)c1ccc2cc(Br)c3ccccc3c2c1 (centres undefined)
inactive: dose: 222.0 mg/kg/injection, schedule: Q01DX Z (ip), vehicle: methylcellulose (MC) 98 % of control | dose: 333.0 mg/kg/injection, schedule: Q01DX Z (ip), vehicle: methylcellulose (MC) 95 % of control | dose: 500.0 mg/kg/injection, schedule: Q01DX Z (ip), vehicle: methylcellulose (MC) 92 % of control

CCC(NC(=O)OCc1ccccc1)C(=O)NC(C(=O)OCc1ccccc1)C(C)C (centres undefined) (Cbz-[Abu]-Val-OBn; configuration not given here)
inactive: [10] 96 % of control | [11] 99 % of control | [12] 96 % of control

CC1(c2ccc(Cl)cc2)NC(=O)N(CN2CCCCC2)C1=O (centres undefined)
inactive: dose: 12.5 mg/kg/injection, schedule: Q01DX009 (ip), vehicle: saline sonified 102 % of control | dose: 25.0 mg/kg/injection, schedule: Q01DX009 (ip), vehicle: saline sonified 96 % of control | dose: 50.0 mg/kg/injection, schedule: Q01DX009 (ip), vehicle: saline sonified 104 % of control

COc1ccc(C)cc1NC(=S)NC(=O)/C=C/c1ccccc1
inactive: dose: 100.0 mg/kg/injection, schedule: Q01DX001 (ip), vehicle: saline with Tween-80 90 % of control | [2] 93 % of control and 100 % of control | dose: 100.0 mg/kg/injection, schedule: Q04DX002 (ip), vehicle: saline with Tween-80 93 % of control and 94 % of control | [3] 91 % of control | dose: 200.0 mg/kg/injection, schedule: Q01DX001 (ip), vehicle: saline with Tween-80 91 % of control | [4] 93 % of control and 88 % of control | dose: 200.0 mg/kg/injection, schedule: Q04DX002 (ip), vehicle: saline with Tween-80 94 % of control and 90 % of control | [5] 93 % of control | dose: 400.0 mg/kg/injection, schedule: Q01DX001 (ip), vehicle: saline with Tween-80 90 % of control | [25] 100 % of control and 103 % of control | dose: 400.0 mg/kg/injection, schedule: Q04DX002 (ip), vehicle: saline with Tween-80 97 % of control and 89 % of control | [6] 91 % of control

CC(=O)NC(=O)NC(=O)CC#N
inactive: [22] 90 % of control | [23] 88 % of control | [24] 93 % of control

Cc1ccccc1Nc1n[nH]c(=S)s1
inactive: [1] 94 % of control | [2] 101 % of control | [3] 97 % of control | [4] 97 % of control | [5] 95 % of control

c1ccc(N=Nc2ccc(NC3=NCCO3)cc2)cc1
inactive: [13] 95 % of control | [14] 98 % of control

O=C(C=C(C(F)(F)F)C(F)(F)F)c1ccccc1Cl
inactive: dose: 12.5 mg/kg/injection, schedule: Q04DX003 (ip), vehicle: saline with Tween-80 97 % of control | dose: 25.0 mg/kg/injection, schedule: Q04DX003 (ip), vehicle: saline with Tween-80 86 % of control | dose: 50.0 mg/kg/injection, schedule: Q04DX003 (ip), vehicle: saline with Tween-80 100 % of control

CCCOCC(O)C[As](=O)(O)c1cccc(Cl)c1 (centres undefined)
inactive: dose: 6.25 mg/kg/injection, schedule: Q01DX001 (ip), vehicle: saline with Tween-80 104 % of control | dose: 12.5 mg/kg/injection, schedule: Q01DX001 (ip), vehicle: saline with Tween-80 102 % of control | dose: 25.0 mg/kg/injection, schedule: Q01DX001 (ip), vehicle: saline with Tween-80 100 % of control

CCOC(=O)C(=CC(CC)C(=O)OCC)C(=O)OCC (centres undefined) (tested in a mixture with another compound)
inactive: [16] 93 % of control | [17] 93 % of control | [18] 89 % of control

CCN(CC)CCNc1nc(N)nc2c1nnn2CC
inactive: dose: 100.0 mg/kg/injection, schedule: Q04DX003 (ip), vehicle: gum acacia 93 % of control | dose: 200.0 mg/kg/injection, schedule: Q04DX003 (ip), vehicle: gum acacia 91 % of control

CC(O)C(NC(=O)CNC(=O)OCc1ccccc1)C(=O)OCc1ccccc1 (stereo not drawn) (Cbz-Gly-[ξT]-OBn)
inactive: [3] 97 % of control | [5] 105 % of control | [6] 97 % of control

O=C(Nc1ccc([N+](=O)[O-])cc1)c1cc(Cl)c2ccccc2c1O
inactive: [10] 106 % of control | [11] 98 % of control

CC(=O)OCC(OC(C)=O)C(OC(C)=O)C(OC(C)=O)C(C#N)OC(C)=O (centres undefined)
inactive: dose: 50.0 mg/kg/injection, schedule: Q01DX001 (ip), vehicle: saline 106 % of control | [7] 115 % of control | [19] 103 % of control | [8] 102 % of control | [20] 95 % of control | [9] 96 % of control | [21] 91 % of control

ClC(Cl)(Cl)c1cc(C(Cl)(Cl)Cl)nc(NCCCN2CCCC2)n1
inactive: [2] 99 % of control | [4] 96 % of control | [25] 95 % of control
